Laboratory results as given in patent US20260234157A1, “COMPOUND AND METHOD FOR TARGETED DEGRADATION OF ANDROGEN RECEPTOR” (Gan & Lee Pharmaceuticals Co., Ltd., priority 2023, published 2026).
Where a chain is given by its changes, count along the chain named. pIC50: −log10 of the molar value.

Tests used:
Format in all cases: cell-based
VCaP cells = experiment: Inhibition of proliferation of VCaP cells (WST-8); settings: Homo sapiens; VCaP cells, 168 hours, WST-8 absorbance at 450 nm; read-out: IC50 for inhibiting the proliferation of VCaP cells
Method in brief: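 VCaP FGC cells, 15000 per well in DMEM with 10% FBS, were cultured at 37° C, 5% CO2. On day nine, WST-8 reagent was added to read proliferation.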

LNCaP FGC cells = experiment: Inhibition of proliferation of LNCaP cells (WST-8); settings: Homo sapiens, LNCaP, 96 h, LNCaP FGC cells, 96 hours, WST-8 absorbance at 450 nm; read-out: IC50 for inhibiting the proliferation of LNCaP cells
Description: The cells were cultured in a cell culture incubator with 5% CO2 at 37° C. overnight. […] On the sixth day, 96 well plates were taken out, and 20 μL of WST-8 (Beytime, C0040) reagent was added to each well.

AR protein [1] = molecular target: T1, AR protein (Homo sapiens, UniProt P10275, T878A); experiment: Degradation of AR protein in LNCaP cells (Western blot); settings: LNCaP cells, 8 hours, Western blot grayscale, GAPDH internal reference; for inhibition at 0.01 µM: compound 10 nM, read-out: Degradation rates of the AR protein in LNCaP cells, 10 nM (%); for inhibition at 0.1 µM: compound 100 nM, read-out: Degradation rates of the AR protein in LNCaP cells, 100 nM (%)
T1 construct: degradation activity of the compounds disclosed in the present disclosure on AR protein in LNCaP cells; host or cells: LNCaP FGC
T1 sequence (P10275 1-920 T878A): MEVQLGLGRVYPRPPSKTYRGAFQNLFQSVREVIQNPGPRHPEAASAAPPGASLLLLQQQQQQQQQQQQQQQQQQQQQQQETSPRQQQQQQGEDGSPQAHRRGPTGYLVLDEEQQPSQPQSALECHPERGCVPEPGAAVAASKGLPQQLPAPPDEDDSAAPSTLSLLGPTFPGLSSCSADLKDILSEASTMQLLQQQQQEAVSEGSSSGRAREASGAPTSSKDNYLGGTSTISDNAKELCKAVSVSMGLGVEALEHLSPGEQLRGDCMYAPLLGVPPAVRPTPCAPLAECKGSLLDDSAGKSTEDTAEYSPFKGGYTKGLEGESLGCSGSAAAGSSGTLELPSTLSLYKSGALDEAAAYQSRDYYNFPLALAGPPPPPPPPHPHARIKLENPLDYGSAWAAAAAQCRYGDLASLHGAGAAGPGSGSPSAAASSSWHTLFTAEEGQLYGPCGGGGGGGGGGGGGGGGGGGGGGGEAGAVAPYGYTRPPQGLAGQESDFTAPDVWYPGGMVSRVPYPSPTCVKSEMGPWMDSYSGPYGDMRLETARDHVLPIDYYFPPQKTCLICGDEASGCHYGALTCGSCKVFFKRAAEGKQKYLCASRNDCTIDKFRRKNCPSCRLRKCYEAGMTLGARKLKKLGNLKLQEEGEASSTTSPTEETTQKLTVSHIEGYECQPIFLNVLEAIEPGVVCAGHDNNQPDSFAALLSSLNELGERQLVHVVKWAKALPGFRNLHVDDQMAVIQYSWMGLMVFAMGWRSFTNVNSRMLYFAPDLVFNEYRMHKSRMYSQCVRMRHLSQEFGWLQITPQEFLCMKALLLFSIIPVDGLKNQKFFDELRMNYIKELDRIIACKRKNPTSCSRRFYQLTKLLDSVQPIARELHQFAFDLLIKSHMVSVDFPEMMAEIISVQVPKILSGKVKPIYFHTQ
Method in brief: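 AR assessed by SDS-PAGE/Western blot with infrared imaging; band greyscale normalised to GAPDH gave percent degradation.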

AR protein [2] = molecular target: T2, AR protein (Homo sapiens, UniProt P10275); experiment: Degradation of AR protein in VCaP cells (Western blot); settings: 8 hours; for inhibition at 0.01 µM: compound at 10 nM, read-out: Degradation rate of the AR protein in VCaP cells, 10 nM (%); for inhibition at 0.1 µM: compound at 100 nM, read-out: Degradation rate of the AR protein in VCaP cells, 100 nM (%)
T2 construct: degradation activity of the compounds disclosed in the present disclosure on AR protein in VCaP cells; host or cells: VCaP
T2 sequence (P10275 1-920): T1 sequence (P10275 1-920 T878A) with A878T
Method in brief: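 VCaP cells treated with compound alongside solvent controls for 8 h, then lysed in RIPA and protein quantified by BCA. AR detected by SDS-PAGE/Western blot with infrared imaging. Degradation rate calculated from band grayscale, with GAPDH as internal reference.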

CCC1(CN2CCC3(CC2)COc2c3ccc3c2CN(C2CCC(=O)NC2=O)C3=O)CCN(c2ccc(C(=O)N[C@H]3C(C)(C)[C@H](Oc4ccc(C#N)c(OC)c4)C3(C)C)cc2)CC1 (stereo partly drawn) [Compound 294]
pIC50 (VCaP cells): 8.70 | pIC50 (LNCaP FGC cells): 7.11 | inhibition at 0.01 µM (AR protein [1]): 54% | inhibition at 0.1 µM (AR protein [1]): 57% | inhibition at 0.01 µM (AR protein [2]): 13% | inhibition at 0.1 µM (AR protein [2]): 62%

N#Cc1ccc(O[C@H]2CC[C@H](NC(=O)c3ccc(N4CCC(CC(=O)N5CCC6(CC5)COc5c6ccc6c5CN(C5CCC(=O)NC5=O)C6=O)CC4)nn3)CC2)cc1Cl (stereo partly drawn) [Compound 192]
pIC50 (VCaP cells): 8.52 | pIC50 (LNCaP FGC cells): 5.59 | inhibition at 0.01 µM (AR protein [1]): 37% | inhibition at 0.1 µM (AR protein [1]): 35% | inhibition at 0.01 µM (AR protein [2]): 66% | inhibition at 0.1 µM (AR protein [2]): 86%

N#Cc1ccc(O[C@H]2CC[C@H](NC(=O)c3ccc(N4CCC(N5CCC6(CCc7cc8c(cc7O6)C(=O)N(C6CCC(=O)NC6=O)C8=O)CC5)C(F)(F)C4)nn3)CC2)cc1Cl (stereo partly drawn) [Compound 27]
pIC50 (VCaP cells): 6.42 | pIC50 (LNCaP FGC cells): 6.96 | inhibition at 0.01 µM (AR protein [1]): 14% | inhibition at 0.1 µM (AR protein [1]): 39% | inhibition at 0.01 µM (AR protein [2]): 33% | inhibition at 0.1 µM (AR protein [2]): 44%

COC1(CN2CC3(CCc4ccc5c(c4O3)C(=O)N(C3CCC(=O)NC3=O)C5=O)C2)CCN(c2ccc(C(=O)N[C@H]3CC[C@H](Oc4ccc(C#N)c(Cl)c4)CC3)nn2)CC1 (stereo partly drawn) [Compound 165]
pIC50 (VCaP cells): < 4.05 | pIC50 (LNCaP FGC cells): 4.02 | inhibition at 0.01 µM (AR protein [1]): 28% | inhibition at 0.1 µM (AR protein [1]): 25% | inhibition at 0.01 µM (AR protein [2]): -43% | inhibition at 0.1 µM (AR protein [2]): 23%
